Results from patent US12351565B2, “Aromatic compound and preparation method therefor and use thereof” (SHANGHAI JIANHE PHARMACEUTICAL & TECHNOLOGY CO. LTD., priority 2018, dated 2025).
Where two headings read alike, the source gives them in different places.

Legend:
[1] = rats, literature (Journal of Psychopharmacology, 2019, 33, 12-24), cited from earlier work
[2] = cited from earlier work
[3] = in mice, background statement; cited from earlier work
[4] = test system: C57 mice; assay: Forced swimming experiment, intraperitoneal administration to mice; type: in vivo; settings: for inhibition in vivo at 10 mg/kg: Mus musculus, ip; for 1 h inhibition rate: forced swimming 1 h after single intraperitoneal 10 mg/kg
Method: The forced-swimming test is currently the most widely used classic method to evaluate the antidepressant effects of compounds in rodents. […] The time in immobile state of experimental animal is observed and recorded, which can be used to evaluate the effect of antidepressant compounds.
1 h and 24 h after a single intraperitoneal administration of 10 mg/kg, forced swimming tests were respectively carried out to investigate the effects of different compounds on depression-like behaviors of C57 mice.
(§1) Experimental animals were 6-week aged C57 mice, male, and C57 mice were purchased from Shanghai SLAC Laboratory Animal Co., Ltd., with a body weight of 20.45±0.19 g. Before the experiment, they arrived at the Animal Feeding Center of Shanghai Institute of Materia Medica, Chinese Academy of Sciences (Animal Production License: SCXK9[Shanghai]2004-0002, usage license: SYXK[Shanghai]2003-0029), and adapted for 3 days or more in animal facilities. They were bred at 6 animals/cage. The breeding environment was room temperature 23±0.2° C., with 12/12 hours alternation of day and night. Before the behavioral test, the animals should be moved to the behavioral test operation room 2 hours in advance to adapt to the environment and reduce their tension.
Preparation of the test product: each test compound was accurately weighed and dissolved in 0.9% NaCl solution, mixed thoroughly, and prepared as a 1 mg/ml solution, set aside.
(§2) 24 hours before the administration, the mice were placed in a cylindrical tank to adapt to the aquatic environment for 10 min. On the day of the behavioral test, the animals were respectively administered intraperitoneally once at 1 h and 24 h before the behavioral test. The mice were placed individually into a cylindrical glass tank with a height of 30 cm and a diameter of 20 cm. The water depth in the tank was 15 cm, so that the animals could not escape from the glass tank and their feet and tails could not touch the bottom of the tank, the water temperature was 23° C.-25° C. A 6 minute video was taken after the mouse entered into water. Since most animals were very active in the first two minutes, the immobility time in the following 4 minute were calculated (criterion of immobility: the mouse stops struggling in the water, stays still and has small limbs movement to maintain balance or to keep a floating state).
(§3) The antidepressant effect of a compound was evaluated by the ability of the compound to reduce the immobility time of the animal in the forced swimming test as compared with the blank group. The shorter the immobility time of the animal to be tested, the higher the inhibition rate and the stronger the antidepressant activity. Inhibition rate1 h(%)=immobility time(blank, 1 h)−immobility time(administration, 1 h)/immobility time(blank, 1 h)×100% Inhibition rate24 h(%)=immobility time(blank, 24 h)−immobility time(administration, 24 h)/immobility time(blank, 24 h)×100%

[5] = test system: C57 mice; assay: Forced swimming experiment, oral administration to mice; type: in vivo; settings: C57 mice
Method: 1 h and 24 h after a single oral administration of 20 mg/kg, forced swimming experiments were then carried out to investigate the effects of different compounds on depression-like behavior in C57 mice.
as §1, with “male,” for “male, and”
Preparation of the test product: each test compound was accurately weighed and dissolved in 0.9% NaCl solution, mixed thoroughly, and prepared into 1 mg/ml and 2 mg/ml solutions respectively, and set aside.
as §2, with “intragastrically” for “intraperitoneally”
as §3, with “group.” for “group. The shorter the immobility time of the animal to be tested, the higher the inhibition rate and the stronger the antidepressant activity.”, “rate24h(%)=immobility” for “rate24 h(%)=immobility”

[6] = In vivo pharmacokinetic experiment in mice; settings: C57 mice; for AUC0-t / AUC0-∞ / MRT / half-life / clearance / Vd / Cmax / Tmax: plasma; for F: 20 mg/kg p.o. vs 5 mg/kg i.v.; for MRT / half-life / clearance / Vd / Cmax / Tmax: male, mouse; for Vd: read-out: Vss
Method: Healthy male C57 mice were randomly divided into groups with 3 mice in each group, and the test compounds were administrated intragastrically or by intravenous injection. See Table 6 below for specific arrangements:
(§4) Each test compound was dissolved in physiological saline to prepare a certain concentration of solution for administration.
(§5) One day before administration, the mice were fasted and allowed to drink freely for 12-14 h. The mice were fed 4 h after administration.
0.030 mL of blood was took from each animal each time through the orbit, and anticoagulated with EDTAK2. The collection time points were as follows: in PO group, 5 min, 15 min, 30 min, 1 h, 2 h, 4 h, 6 h, 8 h, 24 h after administration of test substance; in IV group, 2 min, 5 min, 15 min, 30 min, 1 h, 2 h, 4 h, 6 h, 8 h, 24 h after administration of test substance. After blood samples were collected, they were placed on ice and centrifuged to separate the plasma within 30 minutes (centrifugation conditions: 5000 rpm, 10 minutes, 4° C.). The sample were stored at −80° C. before analysis.

[7] = molecular target: T1, hERG potassium channel (Homo sapiens, UniProt Q12809); assay: hERG potassium channel inhibition experiment (automatic patch clamp, CHO-hERG cells); type: cell-based; settings: Qpatch, highest tested concentration 40 μM, read-out: IC50, blocking effect on the hERG potassium current
T1 construct: expressed in transfected cells
T1 sequence (Q12809 whole entry): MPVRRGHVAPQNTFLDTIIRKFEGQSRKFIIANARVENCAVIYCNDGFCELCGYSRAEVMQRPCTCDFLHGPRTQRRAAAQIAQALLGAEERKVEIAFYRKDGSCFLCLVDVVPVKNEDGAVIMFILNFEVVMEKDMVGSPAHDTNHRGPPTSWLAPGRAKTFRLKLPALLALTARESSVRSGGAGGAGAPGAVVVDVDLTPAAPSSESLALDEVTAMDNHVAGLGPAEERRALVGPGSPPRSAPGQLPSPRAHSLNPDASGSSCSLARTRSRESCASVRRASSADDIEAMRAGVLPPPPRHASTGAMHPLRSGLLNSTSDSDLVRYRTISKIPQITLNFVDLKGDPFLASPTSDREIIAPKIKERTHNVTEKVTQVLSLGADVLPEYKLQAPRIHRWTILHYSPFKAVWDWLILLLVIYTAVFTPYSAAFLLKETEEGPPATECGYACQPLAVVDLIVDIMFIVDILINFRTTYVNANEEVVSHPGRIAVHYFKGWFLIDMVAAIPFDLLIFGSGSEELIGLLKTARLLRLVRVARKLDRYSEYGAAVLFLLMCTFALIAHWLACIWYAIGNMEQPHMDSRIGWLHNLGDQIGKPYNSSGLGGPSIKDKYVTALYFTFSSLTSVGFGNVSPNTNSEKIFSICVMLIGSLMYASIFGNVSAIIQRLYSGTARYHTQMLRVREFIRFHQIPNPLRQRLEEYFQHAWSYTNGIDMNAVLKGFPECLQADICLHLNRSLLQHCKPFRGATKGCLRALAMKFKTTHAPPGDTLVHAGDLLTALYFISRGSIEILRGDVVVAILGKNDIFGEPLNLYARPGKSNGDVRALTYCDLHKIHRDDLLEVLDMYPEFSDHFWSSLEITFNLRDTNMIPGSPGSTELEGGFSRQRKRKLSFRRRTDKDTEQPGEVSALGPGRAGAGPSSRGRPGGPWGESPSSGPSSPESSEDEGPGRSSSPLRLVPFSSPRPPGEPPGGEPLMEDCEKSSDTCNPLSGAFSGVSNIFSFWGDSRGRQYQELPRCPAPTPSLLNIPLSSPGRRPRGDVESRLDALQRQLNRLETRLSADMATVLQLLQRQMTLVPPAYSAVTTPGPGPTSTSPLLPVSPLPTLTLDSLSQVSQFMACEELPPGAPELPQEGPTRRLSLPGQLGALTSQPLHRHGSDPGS
Method: Fully automatic patch clamps were used to test the blocking effect of the compounds of the present invention on the hERG potassium current on a stable cell line transfected with hERG potassium channels.
CHO-hERG cells were cultured in 175 cm^2 culture flask. When the cell grew to 60-80% confluence, the culture medium was removed. The cells were washed with 7 ml PBS (Phosphate Buffered Saline) once, and then 3 ml Detachin was added to digest.
After the digestion was completed, 7 ml culture medium was added to neutralize. The mixture was centrifuged, and after the supernatant was removed, 5 ml culture medium was added to resuspend to ensure the cell density was 2×10^6-5×10^6/ml.
Single-cell high-impedance sealing and whole-cell mode formation were all automatically completed by using the Qpatch instrument. After the recording mode was obtained, the cell was clamped at −80 millivolts. Before +40 millivolt depolarization stimulation for 5 seconds was given, −50 millivolt pre-voltage for 50 millisecond was first given, then repolarized to −50 millivolt for 5 seconds, and then returned to −80 millivolt. This voltage stimulus was applied every 15 seconds. After recording for 2 min, extracellular fluid was given, and recording was conducted for 5 min, and then the dosing process started. The compound concentration started from the lowest test concentration, and each test concentration was given for 2.5 min. […] At least 3 cells per concentration (n≥3) were tested.
20 mM compound mother liquor was diluted with extracellular fluid. 5 μL of 20 mM compound mother liquor was taken and added into 2495 μL extracellular fluid, so that it was diluted 500 times to 40 μM, and was then serially diluted 3 times in an extracellular fluid containing 0.2% DMSO to obtain the final concentration to be tested.
The highest tested concentration was 40 μM, and the concentrations were in order as follows: 40, 13.33, 4.44, 1.48, 0.49, 0.16 μM, totally 6 concentrations.
Experimental data were analyzed by XLFit software.

[8] = Distribution in mouse brain tissue; type: in vivo, C57 mice; settings: male, brain, po; C57 mouse, 10 mg/kg p.o., 30 min
Method: Healthy male C57 mice were randomly divided into groups with 3 mice in each group, and the test compound was administrated intragastrically. See Table 10 below for specific arrangements:
as §4, §5
After the animals were bled, the brain tissue was collected. After washing, 50% ice methanol was added for homogenate at 1:4 (m/v). The collection time points was 10 min, 15 min, 30 min, 1 h, 2 h after administration of the test substance; 30.0 μL of tissue sample was taken (the sample was taken out from the refrigerator at −80° C., vortexed for 30 seconds after natural melting at room temperature) and added into a 1.5 mL centrifuge tube. 300.0 μL internal standard solution (30 ng/mL […] acetonitrile solution) was added, the mixture was vortex for 60 seconds and then centrifuged for 3 minutes (centrifugal force was 12000 rpm); 75 μL of the supernatant was taken and transferred to 96-well injection plate loaded with equal volume of water, shaken and mixed well, and subjected to LC-MS/MS analysis, wherein injection volume was 10 μL.

[9] = brain tissue, 50 mg/kg p.o., literature (Journal of Psychopharmacology, 2019, 33, 12-24)
[10] = 1 h, read-out: 1 h inhibition rate
[11] = 24 h, read-out: 24 h inhibition rate
[12] = inhibition of immobility time, C57 mice
[13] = inhibition of immobility time, forced swimming 1 h after single oral (intragastric) 20 mg/kg
[14] = inhibition of immobility time, forced swimming 24 h after single oral (intragastric) 20 mg/kg

For `Cl.N[C@@]1(c2ccccc2Cl)CCC[C@@H](O)C1=O` [(2R,6R)-HNK, (2R, 6R)-HNK, reference compound], the “AUC0-∞” value ([1]; 10 mg/kg i.v.) is given as 6270 ngh/mL, the CL ([1]; 10 mg/kg i.v.) is given as 27 mL/min/kg and the T1/2 ([1]; 10 mg/kg i.v.) is given as 480 min. For the same molecule, the Vss ([1]; 10 mg/kg i.v.) was 7.5 L/kg, the “AUC0-∞” value ([1]; 10 mg/kg p.o.) was 2650 ngh/mL and the Cmax ([1]; 10 mg/kg p.o.) was 1500 ng/mL. For the same molecule, the F ([1]; 10 mg/kg p.o.) was 42%, the T1/2 ([1]; 10 mg/kg p.o.) was 414 min and the Tmax ([1]; 10 mg/kg p.o.) was 10 min. For the same molecule, the Brain tissue concentration ([2]; 10 mg/kg intraperitoneally, literature (Nature, 2016, 533, 481-486; Nature, 2017, 546, E1-E5)) was 2562 ng/g, the Brain tissue concentration ([2]; 50 mg/kg p.o., 10 min, literature (Journal of Psychopharmacology, 2019, 33, 12-24)) was 6490 to 8600 ng/g and the “AUC0-∞” value [2, 9] was 2850 to 5190 ng·h/g. For the same molecule, the T1/2 [2, 9] was 42 min, the T1/2 [3] was under 60 min and the inhibition in vivo at 10 mg/kg [4, 10] was 31.1%. The inhibition in vivo at 10 mg/kg [4, 11] was 27.4%, the “1 h inhibition rate” value [4, 12] was 31.1 ± 4.0% and the “24 h inhibition rate” value ([4]; inhibition of immobility time, forced swimming 24 h after single intraperitoneal 10 mg/kg, C57 mice) was 27.4 ± 3.9%. For the same molecule, the “1 h inhibition rate” value [5, 13] was 18.4 ± 1.6%, the “24 h inhibition rate” value [5, 14] was 19.6 ± 4.4% and the AUC0-t ([6]; 5 mg/kg i.v.) was 2085 ngh/mL. For the same molecule, the “AUC0-∞” value ([6]; 5 mg/kg i.v.) was 2096 ngh/mL, the F [6] was 66.8% and the AUC0-t ([6]; 20 mg/kg p.o.) was 5589 ngh/mL. For the same molecule, the “AUC0-∞” value ([6]; 20 mg/kg p.o.) was 5599 ngh/mL, the MRT ([6]; iv, 5 mg/kg i.v.) was 23.4 min and the half-life ([6]; iv, 5 mg/kg i.v.) was 20.4 min. It also gave a clearance ([6]; iv, 5 mg/kg i.v.) of 40.7 mL/min/kg, a Vd ([6]; iv, 5 mg/kg i.v.) of 0.94 L/kg and a Cmax ([6]; po, 20 mg/kg p.o.) of 7180 ng/mL. It also gave an MRT ([6]; po, 20 mg/kg p.o.) of 52.5 min, a Tmax ([6]; po, 20 mg/kg p.o.) of 5 min and a half-life ([6]; po, 20 mg/kg p.o.) of 55.8 min.
Work on `Cl.NC1(c2ccc(C(F)(F)F)cc2)CCCC(O)C1=O` (stereo not shown) [Compound 46, 2-amino-6-hydroxy-2-(4-(trifluoromethyl)phenyl)cyclohexane-1-one hydrochloride] yielded an IC50 [7] of over 40 µM, an inhibition in vivo at 10 mg/kg [4, 10] of 34.7 ± 4.1% and an inhibition in vivo at 10 mg/kg [4, 11] of 43.5%. For the same molecule, the “1 h inhibition rate” value [5, 13] was 31.2 ± 4.7% and the “24 h inhibition rate” value [5, 14] was 32.3 ± 1.5%.
In the case of `Cl.N[C@@]1(c2cccc(OC(F)(F)F)c2F)CCC[C@@H](O)C1=O` [Compound 64, (2R,6R)-2-amino-2-(2-fluoro-3-(trifluoromethoxy)phenyl)-6-hydroxycyclohexane-1-one hydrochloride], the IC50 [7] is reported as over 40 µM, the concentration at 30 min [8] is reported as 5740 ng/g and the “1 h inhibition rate” value [5, 13] is reported as 36.5 ± 5.3%. For the same molecule, the “24 h inhibition rate” value [5, 14] was 34.5 ± 1.0%, the AUC0-t ([6]; 5 mg/kg i.v.) was 4817 ngh/mL and the “AUC0-∞” value ([6]; 5 mg/kg i.v.) was 4838 ngh/mL. The F [6] was 66.2%, the AUC0-t ([6]; 20 mg/kg p.o.) was 12708 ngh/mL and the “AUC0-∞” value ([6]; 20 mg/kg p.o.) was 12816 ngh/mL. For the same molecule, the MRT ([6]; iv, 5 mg/kg i.v.) was 52.8 min, the half-life ([6]; iv, 5 mg/kg i.v.) was 52.2 min and the clearance ([6]; iv, 5 mg/kg i.v.) was 17.2 mL/min/kg. It also gave a Vd ([6]; iv, 5 mg/kg i.v.) of 0.91 L/kg, a Cmax ([6]; po, 20 mg/kg p.o.) of 11900 ng/mL and an MRT ([6]; po, 20 mg/kg p.o.) of 125 min. It also gave a Tmax ([6]; po, 20 mg/kg p.o.) of 5 min and a half-life ([6]; po, 20 mg/kg p.o.) of 239 min.
For `CNC1(c2ccccc2Cl)CCCCC1=O` (stereo not shown) [Ketamine, ketamine, reference compound], the Brain tissue concentration ([2]; 30 mg/kg intraperitoneally, literature (Journal of Pharmaceutical and Biomedical Analysis, 2018, 148, 288-297)) is given as 1929 ng/g, the inhibition in vivo at 10 mg/kg [4, 10] is given as 29.2% and the inhibition in vivo at 10 mg/kg [4, 11] is given as 35.4 ± 7.9%. For the same molecule, the “1 h inhibition rate” value [4, 12] was 29.2 ± 4.6%, the “1 h inhibition rate” value ([5]; control given intraperitoneally 10 mg/kg, 1 h) was 22.7 ± 0.2% and the “24 h inhibition rate” value ([5]; control given intraperitoneally 10 mg/kg, 24 h) was 25.1 ± 2.7%.
